Columns and labels:
[1] = Metal chelation by UV spectroscopy, Fe3+; type: physicochemical; settings: 100 µM E-3a, 10 mM ammonium acetate pH 7.0, anaerobic, metal 100 µM-5 mM
[2] = tested on: normal mobilized peripheral blood progenitor cells; settings: cited from earlier work
[3] = tested on: HCT116 and MDA-MB-231 cell lines; assay: Growth inhibition assay, both cancer cell lines; type: cell-based; settings: Homo sapiens, 72 h, read-out: growth inhibition IC50

Compound: O=C(N/N=C/c1c(O)ccc2ccccc12)c1ccccc1O [E-3a, 2-hydroxy-N'-((2-hydroxynaphthalen-1-yl)methylene)benzohydrazide]
- chelation of Fe^3+ [1]: does not chelate Fe^3+ ions
- cytotoxicity against normal cells [2]: little cytotoxicity

Compound: Nc1ccn([C@@H]2O[C@H](CO)[C@@H](O)C2(F)F)c(=O)n1 [gemcitabine]
- IC50 [3]: 30 to 100 nM
